Data taken from ChEMBL document CHEMBL3638669, “Substituted 2-(chroman-6-yloxy)-thiazoles and their use as pharmaceuticals” (2014).

Experiments:
[1] = target: T1, Sodium/calcium exchanger 1 (Homo sapiens, UniProt P32418); experiment: Forward Mode Assay: The assay is based on the monitoring of intracellular Ca2+concentrations using the PBX Calcium Assay Kit from BD (Becton, Dickinson and Company) with calcium indicator dye 51-9000177BKa (BD, 640177), CHO cells expressing NCX1 were loaded with the dye, and after a preincubation period with the test compound, lonomycin (Calbiochem, 407950) was added. Ionomycin is an ionophor for Ca2+ions mediating an increase of intracellular Ca2+ions. Consequently, intracellular Ca2+ions are exchanged against extracellular Na+ions (Ca2+efflux, forward mode). The decrease of intracellular Ca2+ions was detected by measuring the fluorescence of the calcium indicator dye at a wavelength of 520 nm by a FLIPR device.Briefly, similarly as for the reverse mode, for the forward mode transport assay 18000 cells per well were seeded into a 96 well microplate (Corning COSTAR 3904) and incubated overnight in culture medium (cf. above). A total volume of 100 ul medium per well was used.; format: cell-based
[2] = target: T1, Sodium/calcium exchanger 1; experiment: Reverse Mode Assay: The assay is based on the monitoring of intracellular Ca2+concentrations using the calcium-sensitive dye Fluo-4. CHO cells expressing NCX1 were loaded with the dye by means of the acetoxymethyl ester Fluo-4 AM (Invitrogen, F14202), which is cleaved intracellularly by esterase activity to yield the charged species of free Fluo-4. After an preincubation period with the test compound, Gramicidine (Sigma, G5002) was added. Gramicidine is an ionophor for Na+ions mediating an increase of intracellular Na+ions. Consequently, intracellular Na+ions are exchanged against extracellular Ca2+ions (Ca2+influx, reverse mode). The intracellular elevation of Ca2+ ions was detected by measuring the fluorescence of Fluo-4 at a wavelength of 520 nm by a FLIPR device.Briefly, for the reverse mode transport assay 18000 cells per well were seeded into a 96 well microplate (Corning COSTAR 3904) and incubated overnight in culture medium (1x Nut Mix F12 (Ham) (Gibco, 21765-029); 10% (v/v) fetal calf serum.; format: cell-based

T1 sequence (P32418 36-973 limits assumed): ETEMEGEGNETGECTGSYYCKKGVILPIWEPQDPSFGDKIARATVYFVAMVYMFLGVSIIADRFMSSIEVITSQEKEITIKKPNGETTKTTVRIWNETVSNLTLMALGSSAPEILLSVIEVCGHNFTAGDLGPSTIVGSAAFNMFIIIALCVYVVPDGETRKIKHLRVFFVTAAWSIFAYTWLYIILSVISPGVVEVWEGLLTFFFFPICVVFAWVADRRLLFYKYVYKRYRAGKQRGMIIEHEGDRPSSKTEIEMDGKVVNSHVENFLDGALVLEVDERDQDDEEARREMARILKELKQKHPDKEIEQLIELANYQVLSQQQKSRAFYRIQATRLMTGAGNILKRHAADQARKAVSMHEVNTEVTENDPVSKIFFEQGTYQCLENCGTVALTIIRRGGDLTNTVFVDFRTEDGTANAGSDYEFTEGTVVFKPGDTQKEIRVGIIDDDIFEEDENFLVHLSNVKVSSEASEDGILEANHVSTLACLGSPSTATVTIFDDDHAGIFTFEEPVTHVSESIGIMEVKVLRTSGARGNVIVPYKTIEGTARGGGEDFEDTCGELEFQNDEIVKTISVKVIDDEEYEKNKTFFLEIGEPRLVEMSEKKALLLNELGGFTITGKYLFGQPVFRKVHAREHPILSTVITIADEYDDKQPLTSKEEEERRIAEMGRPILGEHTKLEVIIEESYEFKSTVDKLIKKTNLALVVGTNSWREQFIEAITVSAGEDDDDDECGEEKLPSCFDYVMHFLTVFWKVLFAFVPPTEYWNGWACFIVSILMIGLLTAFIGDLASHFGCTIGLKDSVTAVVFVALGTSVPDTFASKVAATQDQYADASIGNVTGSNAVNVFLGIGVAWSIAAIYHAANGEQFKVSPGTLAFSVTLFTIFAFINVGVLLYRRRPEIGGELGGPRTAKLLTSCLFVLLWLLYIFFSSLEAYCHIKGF

IC50 [1] [nM] | SMILES | IC50 [2] [nM]
1900 | Cc1ccccc1C1CCc2cc(Oc3ncc(C(=O)NCc4ccnc(Cl)c4)s3)ccc2O1 (configuration not stated) | 
 | NCCCNC(=O)c1cnc(Oc2ccc3c(c2)CC[C@@H](c2ccccc2)O3)s1 | 300
